The target of this assay is Diamine acetyltransferase 1 (Mus musculus) (UniProt P48026). The experiment in a line: Competitive inhibition at mouse recombinant SSAT expressed in Escherichia coli strain BL21(DE3).
Sequence of Diamine acetyltransferase 1 (Mus musculus) (P48026 whole entry, looked up): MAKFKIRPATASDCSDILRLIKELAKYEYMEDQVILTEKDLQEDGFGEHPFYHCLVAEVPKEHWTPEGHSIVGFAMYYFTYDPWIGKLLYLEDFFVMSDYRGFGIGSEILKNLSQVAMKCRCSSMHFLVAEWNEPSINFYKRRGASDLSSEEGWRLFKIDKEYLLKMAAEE

In general, Ki refers to the equilibrium dissociation constant of an inhibitor or competing ligand from its target. In the case of `CC(CCN)NCCCCN` (stereo unspecified), the Ki was determined as 52 µM.
